Experimental data: patent US20060040871A1, “Bacterial transforming agent” (priority 2003, published 2006)
Where two headings read alike, the source gives them in different places.

Columns and labels:
[1] = system: VRE; assay: Antimicrobial plus BTA against VRE (Table 7); format: cell-based, enterococci; conditions: +BTA 1.0%
[2] = system: MRSA; assay: MIC of ceftazidime or cefuroxime for MRSA grown with or without GBE (Table 2); format: cell-based, Staphylococcus aureus; conditions: for MIC of ceftazidime / MIC of cefuroxime: GBE (0.2%)
From the text: Importantly, the usefulness of the agents of the present invention is not limited to increasing bacterial sensitivity to methicillin.

[3] = system: MRSA with intermediate resistance to glycopeptides; assay: MIC of vancomycin or teicoplanin for MRSA with intermediate resistance to glycopeptides grown with GBE or NAGly (Table 4); format: cell-based, Staphylococcus aureus; conditions: GBE 0.001M; for MIC: Staphylococcus aureus
[4] = system: MRSA; assay: Antimicrobial plus BTA against recent clinical MRSA isolates (Table 7); format: cell-based, Staphylococcus aureus
From the text: The four clinical isolates were isolated from patients during the first three months of 2003. […] An intermediate MRSA has been included, as methicillin-resistance has been achieved by means other than production of PBP2a.

[5] = system: S. aureus; assay: MIC of methicillin for already sensitive S. aureus with GBE, with or without 1% human plasma (Table 6); format: cell-based, Staphylococcus aureus; conditions: for MIC of methicillin: GBE 0.00075M [0.15%]
From the text: As previously mentioned, a common cause of auto-infection is due to S. aureus carried on the anterior nares. […] The transforming agents of the present invention may also be used in combination with a suitable antimicrobial to eliminate nasal carriage of MSSA prior to cardiac surgery or other invasive procedures carrying a high risk of auto-infection.

[6] = system: MRSA; conditions: increasing concentrations of glycine in the growth medium; cited from earlier work

Structure (SMILES): NCC(=O)OCc1ccccc1 [GBE, Glycine Benzyl Ester]
- Vancomycin (antimicrobial plus BTA; quantity not named, MIC implied) [1]: 64 µg/mL
- MIC of ceftazidime ([2]; CD40 (EMRSA-1)): 4 µg/mL
- MIC of cefuroxime ([2]; CD40 (EMRSA-1)): 2 µg/mL
- MIC of ceftazidime ([2]; DS09 (EMRSA-1)): 2 µg/mL
- MIC of cefuroxime ([2]; DS09 (EMRSA-1)): 2 µg/mL
- MIC of ceftazidime ([2]; E15-97 (EMRSA-15)): 4 µg/mL
- MIC of cefuroxime ([2]; E15-97 (EMRSA-15)): 4 µg/mL
- MIC of ceftazidime ([2]; E16-96 (EMRSA-16)): 2 µg/mL
- MIC of cefuroxime ([2]; E16-96 (EMRSA-16)): 4 µg/mL
- MIC of ceftazidime ([2]; JF1-32 (EMRSA-1)): 2 µg/mL
- MIC of cefuroxime ([2]; JF1-32 (EMRSA-1)): 2 µg/mL
- MIC of ceftazidime ([2]; MC01 (EMRSA-1)): 2 µg/mL
- MIC of cefuroxime ([2]; MC01 (EMRSA-1)): 4 µg/mL
- MIC of ceftazidime ([2]; NCTC 12493): 2 µg/mL
- MIC of cefuroxime ([2]; NCTC 12493): 4 µg/mL
- MIC of ceftazidime ([2]; PS3-32 (EMRSA-1)): 4 µg/mL
- MIC of cefuroxime ([2]; PS3-32 (EMRSA-1)): 4 µg/mL
- MIC of ceftazidime ([2]; SN31 (EMRSA-1)): 4 µg/mL
- MIC of cefuroxime ([2]; SN31 (EMRSA-1)): 4 µg/mL
- MIC of ceftazidime ([2]; ST11 (EMRSA-1)): 2 µg/mL
- MIC of cefuroxime ([2]; ST11 (EMRSA-1)): 2 µg/mL
- MIC of ceftazidime ([2]; SW2-32 (EMRSA-1)): 4 µg/mL
- MIC of cefuroxime ([2]; SW2-32 (EMRSA-1)): 4 µg/mL
- transformation to ceftazidime and cefuroxime sensitivity ([2]; Table 2): transforms the MRSA tested to ceftazidime and cefuroxime sensitivity
- MIC of vancomycin ([3]; L266 (first line), EMRSA-17 (VISA)): 2 µg/mL
- MIC of vancomycin ([3]; L266 (second line), EMRSA-17 (VISA)): 1 µg/mL
- MIC of vancomycin ([3]; NCTC 12493): 0.12 µg/mL
- MIC ([3]; MRSA / NCTC 12493, read-out: MIC of teicoplanin, NCTC 12493): 0.06 µg/mL
- MIC ([3]; MRSA, read-out: MIC of teicoplanin, L265, EMRSA-16 (TISA)): 1 µg/mL
- MIC ([3]; MRSA, read-out: MIC of teicoplanin, L266, EMRSA-16 (TISA)): 2 µg/mL
- Oxacillin (antimicrobial plus BTA; quantity not named, MIC implied) ([4]; EMRSA-16, +BTA 0.01%): 4 µg/mL
- Cephalexin (antimicrobial plus BTA; quantity not named, MIC implied) ([4]; EMRSA-16, +BTA 0.1%): 2 µg/mL
- Oxacillin (antimicrobial plus BTA; quantity not named, MIC implied) ([4]; EMRSA-16, +BTA 0.1%): 2 µg/mL
- Cephalexin (antimicrobial plus BTA; quantity not named, MIC implied) ([4]; EMRSA-16, +BTA 1.0%): 1 µg/mL
- Oxacillin (antimicrobial plus BTA; quantity not named, MIC implied) ([4]; EMRSA-16, +BTA 1.0%): 1 µg/mL
- Vancomycin (antimicrobial plus BTA; quantity not named, MIC implied) ([4]; EMRSA-16, +BTA 1.0%): 0.25 µg/mL
- Oxacillin (antimicrobial plus BTA; quantity not named, MIC implied) ([4]; EMRSA-17, +BTA 0.01%): 6 µg/mL
- Cephalexin (antimicrobial plus BTA; quantity not named, MIC implied) ([4]; EMRSA-17, +BTA 0.1%): 2 µg/mL
- Oxacillin (antimicrobial plus BTA; quantity not named, MIC implied) ([4]; EMRSA-17, +BTA 0.1%): 2 µg/mL
- Cephalexin (antimicrobial plus BTA; quantity not named, MIC implied) ([4]; EMRSA-17, +BTA 1.0%): 1.5 µg/mL
- Oxacillin (antimicrobial plus BTA; quantity not named, MIC implied) ([4]; EMRSA-17, +BTA 1.0%): 1.5 µg/mL
- Vancomycin (antimicrobial plus BTA; quantity not named, MIC implied) ([4]; EMRSA-17, +BTA 1.0%): 0.25 µg/mL
- Oxacillin (antimicrobial plus BTA; quantity not named, MIC implied) ([4]; I-MRSA, +BTA 0.01%): 2 µg/mL
- Cephalexin (antimicrobial plus BTA; quantity not named, MIC implied) ([4]; I-MRSA, +BTA 0.1%): 1 µg/mL
- Oxacillin (antimicrobial plus BTA; quantity not named, MIC implied) ([4]; I-MRSA, +BTA 0.1%): 1 µg/mL
- Cephalexin (antimicrobial plus BTA; quantity not named, MIC implied) ([4]; I-MRSA, +BTA 1.0%): 0.75 µg/mL
- Oxacillin (antimicrobial plus BTA; quantity not named, MIC implied) ([4]; I-MRSA, +BTA 1.0%): 0.75 µg/mL
- Vancomycin (antimicrobial plus BTA; quantity not named, MIC implied) ([4]; I-MRSA, +BTA 1.0%): < 0.25 µg/mL
- MIC of methicillin ([5]; 5518 (EMRSA-1), no plasma): <0.25 µg/mL
- MIC of methicillin ([5]; 5518 (EMRSA-1), plasma (1%)): 0.5 µg/mL
- MIC of methicillin ([5]; LHS77, no plasma): <0.25 µg/mL
- MIC of methicillin ([5]; LHS77, plasma (1%)): <0.25 µg/mL
- MIC of methicillin ([5]; LHS78, no plasma): <0.25 µg/mL
- MIC of methicillin ([5]; LHS78, plasma (1%)): 1 µg/mL
- MIC of methicillin ([5]; LHS79, no plasma): <0.25 µg/mL
- MIC of methicillin ([5]; LHS79, plasma (1%)): 0.25 µg/mL
- MIC of methicillin ([5]; LHS80, no plasma): <0.25 µg/mL
- MIC of methicillin ([5]; LHS80, plasma (1%)): 0.25 µg/mL
- MIC of methicillin ([5]; LHS81, no plasma): <0.25 µg/mL
- MIC of methicillin ([5]; LHS81, plasma (1%)): <0.25 µg/mL
- MIC of methicillin ([5]; LHS82, no plasma): <0.25 µg/mL
- MIC of methicillin ([5]; LHS82, plasma (1%)): 4 µg/mL
- MIC of methicillin ([5]; LHS83, no plasma): <0.25 µg/mL
- MIC of methicillin ([5]; LHS83, plasma (1%)): 0.25 µg/mL
- MIC of methicillin ([5]; LHS84, no plasma): <0.25 µg/mL
- MIC of methicillin ([5]; LHS84, plasma (1%)): 2 µg/mL
- MIC of methicillin ([5]; LHS85, no plasma): <0.25 µg/mL
- MIC of methicillin ([5]; LHS85, plasma (1%)): 0.5 µg/mL
- MIC of methicillin ([5]; LHS86, no plasma): <0.25 µg/mL
- MIC of methicillin ([5]; LHS86, plasma (1%)): 0.25 µg/mL
- MIC of methicillin ([5]; LHS87, no plasma): <0.25 µg/mL
- MIC of methicillin ([5]; LHS87, plasma (1%)): 4 µg/mL
- MIC of methicillin ([5]; LHS88, no plasma): <0.25 µg/mL
- MIC of methicillin ([5]; LHS88, plasma (1%)): 0.5 µg/mL
- MIC of methicillin ([5]; LHS89, no plasma): <0.25 µg/mL
- MIC of methicillin ([5]; LHS89, plasma (1%)): 0.5 µg/mL
- MIC of methicillin ([5]; LHS90, no plasma): <0.25 µg/mL
- MIC of methicillin ([5]; LHS90, plasma (1%)): <0.25 µg/mL
- MIC of methicillin ([5]; LHS91, no plasma): <0.25 µg/mL
- MIC of methicillin ([5]; LHS91, plasma (1%)): <0.25 µg/mL
- MIC of methicillin ([5]; LHS92, no plasma): <0.25 µg/mL
- MIC of methicillin ([5]; LHS92, plasma (1%)): 1 µg/mL
- MIC of methicillin ([5]; LHS93, no plasma): <0.25 µg/mL
- MIC of methicillin ([5]; LHS93, plasma (1%)): 0.5 µg/mL
- MIC of methicillin ([5]; LHS94, no plasma): <0.25 µg/mL
- MIC of methicillin ([5]; LHS94, plasma (1%)): 0.5 µg/mL
- effect on methicillin sensitivity of already sensitive bacteria ([5]; Table 6): increases the sensitivity of already sensitive bacteria to methicillin

Structure (SMILES): NCC(=O)O [Glycine, glycine]
- effect on MIC of methicillin against MRSA [6]: reduces the MIC of methicillin against MRSA
